One molecule from patent US8410310B2, “Trypsin-like serine protease inhibitors, and their preparation and use” (The Medicines Company (Leipzig) GmbH, priority 2006, dated 2013) can be followed below.

SMILES strings stand for the structures.

This test addresses plasmin (Homo sapiens, UniProt P00747). The test is described as follows: Determination of inhibition constants for plasmin. The class given is biochemical. Further details: purchased Calbiochem. As to conditions: 25° C., substrate Chromozym PL, pH 8.0; read-out: Plasmin [Ki]. Summed up:
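Chromogenic assays measured absorbance at 405 nm: zero-order reactions were stopped with acetic acid after 20 min, and pseudo-first-order rates were recorded kinetically at equilibrium. Ki was obtained by Dixon linear regression or by fitting to the competitive-inhibition rate equation, averaging at least two determinations.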

Sequence of plasmin (P00747 581-810 limits assumed): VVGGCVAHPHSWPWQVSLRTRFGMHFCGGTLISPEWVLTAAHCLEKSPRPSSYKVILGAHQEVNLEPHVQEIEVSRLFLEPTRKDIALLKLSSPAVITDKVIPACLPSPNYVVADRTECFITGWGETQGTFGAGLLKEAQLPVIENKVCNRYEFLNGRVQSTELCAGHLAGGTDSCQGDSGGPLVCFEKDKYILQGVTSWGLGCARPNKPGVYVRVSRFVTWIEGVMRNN
Sequence of plasmin (P00747 97-580 partner limits assumed): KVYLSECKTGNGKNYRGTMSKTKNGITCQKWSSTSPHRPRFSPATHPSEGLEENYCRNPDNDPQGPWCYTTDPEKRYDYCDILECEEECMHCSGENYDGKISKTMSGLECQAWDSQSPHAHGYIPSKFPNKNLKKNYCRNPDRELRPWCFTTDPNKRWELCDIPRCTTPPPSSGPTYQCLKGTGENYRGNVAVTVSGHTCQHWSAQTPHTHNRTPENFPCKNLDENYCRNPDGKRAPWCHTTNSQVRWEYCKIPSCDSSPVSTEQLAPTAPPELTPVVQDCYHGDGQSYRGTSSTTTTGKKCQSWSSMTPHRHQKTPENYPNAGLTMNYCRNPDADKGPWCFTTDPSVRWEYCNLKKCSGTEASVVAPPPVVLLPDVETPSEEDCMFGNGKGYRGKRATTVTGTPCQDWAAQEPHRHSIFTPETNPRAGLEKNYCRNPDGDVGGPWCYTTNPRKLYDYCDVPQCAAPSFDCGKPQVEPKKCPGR

With `N=C(N)c1ccc(CNC(=O)[C@H](Cc2cccc(CN)c2)NC(=O)[C@@H](CCCc2ccccc2)NS(=O)(=O)Cc2cccc(C(=O)O)c2)cc1` [compound 3, 3-HOOC-Bzls-d-Ppg-Phe(3-Ame)-4-Amba×2 acetate], the Ki is less than 10 nM.
